For twelve compounds, TGI results are on record in PubChem BioAssay (NCI).

Test systems include OVCAR-5 ovarian; MOLT-4 leukemia; PC-3 prostate; SR leukemia; SK-OV-3 ovarian; UACC-62 melanoma; RXF 393 renal; 786-0 renal; HCT-15 colon; NCI/ADR-RES ovarian; IGROV1 ovarian.
What all share (test): NCI-60 cell line screen, 48 h

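Five concentrations, 48 hours, 96-well plates. TGI is the concentration that stops growth completely.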

As to `Cc1nc2sc3ccccc3n2c(=O)c1N=Nc1ccc(Cl)cc1`, the TGI with OVCAR-5 ovarian, with MOLT-4 leukemia, in the assay on PC-3 prostate, in the assay with SR leukemia, in the assay with SK-OV-3 ovarian and with UACC-62 melanoma was above 100 µM throughout. Also, the TGI in the assay on RXF 393 renal, with 786-0 renal, with HCT-15 colon, in the assay with NCI/ADR-RES ovarian and in the assay on IGROV1 ovarian was above 100 µM throughout.
As for `COc1ccc(NS(=O)(=O)c2ccc(NC(NC(=O)CC(C)C)(C(F)(F)F)C(F)(F)F)cc2)nn1`, the TGI with OVCAR-5 ovarian, in the assay with MOLT-4 leukemia, in the assay on PC-3 prostate, in the assay with SR leukemia, in the assay on SK-OV-3 ovarian and in the assay with UACC-62 melanoma was above 100 µM throughout. The TGI with RXF 393 renal, in the assay on 786-0 renal, in the assay with HCT-15 colon, in the assay on NCI/ADR-RES ovarian and in the assay on IGROV1 ovarian was above 100 µM throughout.
For `COc1nc2nccnc2c(=O)n1C`, the TGI in the assay with OVCAR-5 ovarian, in the assay with MOLT-4 leukemia, in the assay with PC-3 prostate, in the assay with SR leukemia, in the assay on SK-OV-3 ovarian and with UACC-62 melanoma was above 10 µM throughout. Moreover, the TGI in the assay with RXF 393 renal, in the assay on 786-0 renal, with HCT-15 colon, in the assay with NCI/ADR-RES ovarian and in the assay with IGROV1 ovarian was above 10 µM throughout.
Take `NC(CCC(=O)NC(CSCC1C(=O)Nc2ccccc21)C(=O)NCC(=O)O)C(=O)O` (configuration not stated): the TGI with OVCAR-5 ovarian was 31.1 µM; with MOLT-4 leukemia, 12.8 µM; in the assay with PC-3 prostate, 49 µM; in the assay with SR leukemia, 2.51 µM; with SK-OV-3 ovarian, above 49.4 µM; in the assay with UACC-62 melanoma, 23.6 µM. Moreover, the TGI with RXF 393 renal came to 2.33 µM; in the assay with 786-0 renal, 8.55 µM; in the assay with HCT-15 colon, 11 µM; in the assay on NCI/ADR-RES ovarian it was 19.7 µM; in the assay with IGROV1 ovarian it was 13 µM.
In the case of `CCN1CCC(O)(/C=C/c2ccc(C)cc2C)C(C(=O)/C=C/c2ccc(C)cc2C)C1` (configuration not stated), the TGI in the assay with OVCAR-5 ovarian is 14.7 µM; with MOLT-4 leukemia it was 5.08 µM; in the assay with PC-3 prostate, 9.17 µM; in the assay on SR leukemia, 7.94 µM; with SK-OV-3 ovarian it was 26.7 µM; in the assay on UACC-62 melanoma it was 11 µM. Moreover, the TGI was 14.3 µM in the assay on RXF 393 renal; 3.32 µM in the assay on 786-0 renal; 4.14 µM in the assay on HCT-15 colon; 7.31 µM in the assay with NCI/ADR-RES ovarian; 8.98 µM in the assay with IGROV1 ovarian.
Take `Nc1nc(Cl)cc(NCC2(CO)CCCC2)n1`: the TGI in the assay on OVCAR-5 ovarian, in the assay on MOLT-4 leukemia, in the assay with PC-3 prostate, in the assay with SR leukemia, in the assay on SK-OV-3 ovarian and in the assay on UACC-62 melanoma was above 100 µM in each case. Besides, the TGI in the assay on RXF 393 renal, in the assay with 786-0 renal, with HCT-15 colon, in the assay with NCI/ADR-RES ovarian and with IGROV1 ovarian was above 100 µM throughout.
As to `COc1ccc2c(cnc3c4cc(OC)c(OC)cc4ccc23)c1`, the TGI in the assay on OVCAR-5 ovarian, with MOLT-4 leukemia, in the assay with PC-3 prostate, in the assay on SR leukemia, in the assay on SK-OV-3 ovarian and in the assay on UACC-62 melanoma was above 100 µM throughout. Moreover, the TGI with RXF 393 renal, in the assay on 786-0 renal, in the assay with HCT-15 colon, with NCI/ADR-RES ovarian and in the assay with IGROV1 ovarian was above 100 µM throughout.
In the case of `C=CC[C@]12C=C(OC)[C@@H](O)[C@](OC)(C(c3cc(OC)c4c(c3)OCO4)[C@H]1C)[C@H]2OC(C)=O` (some centres not stated), the TGI in the assay on OVCAR-5 ovarian, in the assay on MOLT-4 leukemia, in the assay with PC-3 prostate, with SR leukemia, in the assay with SK-OV-3 ovarian and with UACC-62 melanoma was above 100 µM throughout. In addition, the TGI in the assay with RXF 393 renal, in the assay with 786-0 renal, with HCT-15 colon, in the assay with NCI/ADR-RES ovarian and in the assay with IGROV1 ovarian was above 100 µM in each case.
`Cc1ccc2c(c1)C(=O)C1(C2)Cc2cccc(C)c2C1=O` (configuration not stated): the TGI in the assay on OVCAR-5 ovarian, in the assay with MOLT-4 leukemia, in the assay on PC-3 prostate, with SR leukemia, with SK-OV-3 ovarian and with UACC-62 melanoma was above 100 µM each time. In addition, the TGI in the assay with RXF 393 renal, with 786-0 renal, in the assay on HCT-15 colon, in the assay with NCI/ADR-RES ovarian and in the assay with IGROV1 ovarian was above 100 µM each time.
As to `O=C1O[C@H](c2ccc3c(c2)OCO3)[C@H]2CO[C@@H](c3ccc4c(c3)OCO4)[C@@H]12`, the TGI in the assay with OVCAR-5 ovarian, in the assay on MOLT-4 leukemia, in the assay with PC-3 prostate, in the assay with SR leukemia, in the assay with SK-OV-3 ovarian and in the assay on UACC-62 melanoma was above 100 µM each time. Moreover, the TGI in the assay on RXF 393 renal, in the assay on 786-0 renal, in the assay on HCT-15 colon, in the assay on NCI/ADR-RES ovarian and in the assay with IGROV1 ovarian was above 100 µM throughout.
On to `N#CC1=C(N)N(c2ccccc2)C(c2ccccc2)C1(C#N)C#N` (configuration not stated), for which the TGI in the assay on OVCAR-5 ovarian turned out to be 37.3 µM; with MOLT-4 leukemia it was 31.7 µM; with PC-3 prostate, 40.3 µM; in the assay on SR leukemia, 40.5 µM; with SK-OV-3 ovarian it was 78.4 µM; in the assay on UACC-62 melanoma it was 45.7 µM. The TGI in the assay with RXF 393 renal came out at 33.6 µM; in the assay on 786-0 renal, 32.6 µM; in the assay on HCT-15 colon it was 51.1 µM; in the assay on NCI/ADR-RES ovarian, 45.3 µM; in the assay with IGROV1 ovarian, 32 µM.
For `CC(C)(Cl)C(Br)CCC(=CCCl)CBr` (mixture of isomers), the TGI in the assay with OVCAR-5 ovarian is 21.4 µM; in the assay on MOLT-4 leukemia, above 21.2 µM; in the assay with PC-3 prostate, 7.22 µM; in the assay on SR leukemia, 3.92 µM; in the assay on SK-OV-3 ovarian, 31.2 µM; with UACC-62 melanoma, 5.41 µM. For the same compound, the TGI in the assay with RXF 393 renal turned out to be 7.57 µM; in the assay with 786-0 renal it was 3.77 µM; in the assay on HCT-15 colon, 3 µM; in the assay on NCI/ADR-RES ovarian, 24.3 µM; with IGROV1 ovarian it was 6.73 µM.
